From patent US10457709B2, “Antimicrobial peptides, their variants and uses” (priority 2015, dated 2019)
Read-outs that look alike come from different tables or passages of the source. Square brackets hold non-standard residues; d marks the D form. Peptide text beside a SMILES is read from it.

Tests used:
[1] = tested on: Enterobacter cloacae clinical strains; format: cell-based; design: Minimum inhibitory concentration: unit: μg/ml; conditions: microdilution, Muller Hinton broth-cation adjusted, 0.02% BSA, 0.2% acetic acid
Procedure, shortened: (§1)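 MIC = lowest concentration without visual growth after 20–24 h at 37° C. Microbroth dilution, 5.0×10^5 cfu/ml, 0.125–128 μg/ml range; MH broth for bacteria, potato dextrose broth for yeasts.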

[2] = tested on: Proteus mirabilis clinical strains; format: cell-based; design: Minimum inhibitory concentration: unit: μg/ml; conditions: microdilution, Muller Hinton broth-cation adjusted, 0.02% BSA, 0.2% acetic acid
Procedure, shortened: as §1

[3] = tested on: Serratia marcescens clinical strains; format: cell-based; design: Minimum inhibitory concentration: unit: μg/ml; conditions: microdilution, Muller Hinton broth-cation adjusted, 0.02% BSA, 0.2% acetic acid
Procedure, shortened: as §1

[4] = tested on: Staphylococcus aureus clinical strains; format: cell-based; design: Minimum inhibitory concentration: unit: μg/ml; conditions: microdilution, Muller Hinton broth-cation adjusted, 0.02% BSA, 0.2% acetic acid
Procedure, shortened: as §1

[5] = tested on: Streptococcus pneumoniae clinical strains; format: cell-based; design: Minimum inhibitory concentration: unit: μg/ml; conditions: microdilution, Muller Hinton broth-cation adjusted, 0.02% BSA, 0.2% acetic acid
Procedure, shortened: as §1

[6] = tested on: Candida albicans clinical strains; assay: MIC, clinical yeast strains; format: cell-based; design: unit: μg/ml
Procedure, shortened: as §1

[7] = tested on: C. glabrata clinical strains; assay: MIC, clinical yeast strains; format: cell-based, Candida glabrata; design: unit: µg/ml
Procedure, shortened: as §1

[8] = tested on: C. parapsilosis clinical strains; assay: MIC, clinical yeast strains; format: cell-based, Candida parapsilosis; design: unit: µg/ml
Procedure, shortened: as §1

[9] = tested on: C. quillermondiae clinical strains; assay: MIC, clinical yeast strains; format: cell-based, Candida quillermondiae; design: unit: μg/ml; conditions: C. quillermondiae clinical yeast strain 1
Procedure, shortened: as §1

[10] = tested on: Escherichia coli clinical strains; format: cell-based; conditions: microdilution, Muller Hinton broth-cation adjusted, 0.02% BSA, 0.2% acetic acid
Procedure, shortened: as §1

[11] = tested on: Klebsiella pneumoniae clinical strains; format: cell-based; conditions: microdilution, Muller Hinton broth-cation adjusted, 0.02% BSA, 0.2% acetic acid
Procedure, shortened: as §1

[12] = tested on: Pseudomonas aeruginosa clinical strains; format: cell-based; conditions: microdilution, Muller Hinton broth-cation adjusted, 0.02% BSA, 0.2% acetic acid
Procedure, shortened: as §1

SMILES: CC[C@@H](C)[C@@H](N)C(=O)N[C@H](Cc1c[nH]c2ccccc12)C(=O)N[C@H](CCCCN)C(=O)N[C@H](CCCNC(=N)N)C(=O)N[C@H](Cc1ccccc1)C(=O)N[C@H](CCCNC(=N)N)C(=O)N[C@H](CC(C)C)C(=O)N[C@H](Cc1ccccc1)C(=O)N[C@H](CCCCN)C(=O)N[C@H](CCCCN)C(=O)N[C@H](Cc1c[nH]c2ccccc12)C(=O)O [Chain304D] (H-[dI][dW][dK][dR][dF][dR][dL][dF][dK][dK][dW]-OH)
- Minimum inhibitory concentration ([1]; Enterobacter cloacae clinical strain 1): 64
- Minimum inhibitory concentration ([1]; Enterobacter cloacae clinical strain 2): 64
- Minimum inhibitory concentration ([1]; Enterobacter cloacae clinical strain 3): 128
- Minimum inhibitory concentration ([1]; Enterobacter cloacae clinical strain 4): 128
- Minimum inhibitory concentration ([1]; Enterobacter cloacae clinical strain 5): 32
- Minimum inhibitory concentration ([2]; Proteus mirabilis clinical strain 1): >128
- Minimum inhibitory concentration ([2]; Proteus mirabilis clinical strain 2): >128
- Minimum inhibitory concentration ([2]; Proteus mirabilis clinical strain 3): >128
- Minimum inhibitory concentration ([2]; Proteus mirabilis clinical strain 4): >128
- Minimum inhibitory concentration ([2]; Proteus mirabilis clinical strain 5): >128
- Minimum inhibitory concentration ([3]; Serratia marcescens clinical strain 1): >128
- Minimum inhibitory concentration ([3]; Serratia marcescens clinical strain 2): >128
- Minimum inhibitory concentration ([3]; Serratia marcescens clinical strain 3): >128
- Minimum inhibitory concentration ([3]; Serratia marcescens clinical strain 4): >128
- Minimum inhibitory concentration ([3]; Serratia marcescens clinical strain 5): >128
- Minimum inhibitory concentration ([4]; Staphylococcus aureus clinical strain 1): 32
- Minimum inhibitory concentration ([4]; Staphylococcus aureus clinical strain 2): 32
- Minimum inhibitory concentration ([4]; Staphylococcus aureus clinical strain 3): 16
- Minimum inhibitory concentration ([4]; Staphylococcus aureus clinical strain 4): 16
- Minimum inhibitory concentration ([4]; Staphylococcus aureus clinical strain 5): 16
- Minimum inhibitory concentration ([5]; Streptococcus pneumoniae clinical strain 1): 128
- Minimum inhibitory concentration ([5]; Streptococcus pneumoniae clinical strain 2): 128
- Minimum inhibitory concentration ([5]; Streptococcus pneumoniae clinical strain 3): 128
- Minimum inhibitory concentration ([5]; Streptococcus pneumoniae clinical strain 4): 128
- Minimum inhibitory concentration ([5]; Streptococcus pneumoniae clinical strain 5): 64
- Minimum inhibitory concentration ([6]; Candida albicans clinical yeast strain 1): 16
- Minimum inhibitory concentration ([6]; Candida albicans clinical yeast strain 2): 16
- Minimum inhibitory concentration ([6]; Candida albicans clinical yeast strain 3): 16
- Minimum inhibitory concentration ([6]; Candida albicans clinical yeast strain 4): 16
- Minimum inhibitory concentration ([6]; Candida albicans clinical yeast strain 5): 32
- Minimum inhibitory concentration ([7]; C. glabrata clinical yeast strain 1): 16
- Minimum inhibitory concentration ([7]; C. glabrata clinical yeast strain 2): 16
- Minimum inhibitory concentration ([7]; C. glabrata clinical yeast strain 3): 8
- Minimum inhibitory concentration ([7]; C. glabrata clinical yeast strain 4): 64
- Minimum inhibitory concentration ([8]; C. parapsilosis clinical yeast strain 1): 64
- Minimum inhibitory concentration ([8]; C. parapsilosis clinical yeast strain 2): 64
- Minimum inhibitory concentration ([8]; C. parapsilosis clinical yeast strain 3): 32
- Minimum inhibitory concentration ([8]; C. parapsilosis clinical yeast strain 4): 16
- Minimum inhibitory concentration [9]: 16
- Minimum inhibitory concentration ([10]; Escherichia coli clinical strain 1): 1
- Minimum inhibitory concentration ([10]; Escherichia coli clinical strain 2): 16
- Minimum inhibitory concentration ([10]; Escherichia coli clinical strain 3): 16
- Minimum inhibitory concentration ([10]; Escherichia coli clinical strain 4): 32
- Minimum inhibitory concentration ([10]; Escherichia coli clinical strain 5): 32
- Minimum inhibitory concentration ([11]; Klebsiella pneumoniae clinical strain 1): >128
- Minimum inhibitory concentration ([11]; Klebsiella pneumoniae clinical strain 2): >128
- Minimum inhibitory concentration ([11]; Klebsiella pneumoniae clinical strain 3): >128
- Minimum inhibitory concentration ([11]; Klebsiella pneumoniae clinical strain 4): >128
- Minimum inhibitory concentration ([11]; Klebsiella pneumoniae clinical strain 5): 64
- Minimum inhibitory concentration ([12]; Pseudomonas aeruginosa clinical strain 1): 32
- Minimum inhibitory concentration ([12]; Pseudomonas aeruginosa clinical strain 2): 64
- Minimum inhibitory concentration ([12]; Pseudomonas aeruginosa clinical strain 3): 64
- Minimum inhibitory concentration ([12]; Pseudomonas aeruginosa clinical strain 4): 64
- Minimum inhibitory concentration ([12]; Pseudomonas aeruginosa clinical strain 5): 16
